In patent US20240384268A1, “Oligonucleotides” (Hudson Institute of Medical Research, priority 2021, published 2024):

Molecular target: cGAS (Homo sapiens, UniProt Q8N884)
Experiment: ISD70-driven IP-10 (and IFN-β) production in THP-1 cells, ELISA
Format: cell-based
Parameters: endogenous in cells; host or cells: THP-1 (undifferentiated)
Conditions: MOE-modified ASO at 100 nM; averaged IP-10 levels relative to ISD70 condition

Sequence of cGAS (Q8N884 whole entry): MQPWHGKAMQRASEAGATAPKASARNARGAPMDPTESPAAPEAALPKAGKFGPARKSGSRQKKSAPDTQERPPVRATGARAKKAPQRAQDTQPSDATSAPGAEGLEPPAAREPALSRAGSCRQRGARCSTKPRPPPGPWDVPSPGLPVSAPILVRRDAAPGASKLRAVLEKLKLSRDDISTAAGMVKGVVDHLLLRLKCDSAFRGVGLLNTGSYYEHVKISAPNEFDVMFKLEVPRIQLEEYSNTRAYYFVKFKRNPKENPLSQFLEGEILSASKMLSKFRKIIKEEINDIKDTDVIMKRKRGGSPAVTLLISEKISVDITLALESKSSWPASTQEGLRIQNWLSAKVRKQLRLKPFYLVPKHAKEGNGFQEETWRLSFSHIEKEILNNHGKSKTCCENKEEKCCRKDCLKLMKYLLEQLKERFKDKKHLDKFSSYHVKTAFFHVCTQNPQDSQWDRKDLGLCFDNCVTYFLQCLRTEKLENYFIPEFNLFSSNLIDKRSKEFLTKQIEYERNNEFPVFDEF

CTCTTGAAGCATCGTATCAC (antisense; 2'-MOE modified, pattern not given here) [CTNN2B-3648 MOE]
cGAS 100 nM: 0.791

CAATGTGATGGCCTCCCATC (antisense; 2'-MOE modified, pattern not given here) [HPRT-335 MOE]
cGAS 100 nM: 0.362

GTGTCCTTGCACGTGGCTTC (antisense; 2'-MOE modified, pattern not given here) [EGFR-1015 MOE]
cGAS 100 nM: 0.384

GTGTCTTCATCGGCCCTGCC (antisense; 2'-MOE modified, pattern not given here) [CAMSAP1-2113 MOE]
cGAS 100 nM: 0.606

GTCCACATCCTGTGGCTCGT (antisense; 2'-MOE modified, pattern not given here) [CAMSAP1-2906 MOE]
cGAS 100 nM: 0.455

ACAGTGTTGAGATACTCGGG (antisense; 2'-MOE modified, pattern not given here) [EGFR-3652 MOE]
cGAS 100 nM: 0.297

CGTGTCTGGAAGCTTCCTTT (antisense; 2'-MOE modified, pattern not given here) [CTNN2B-808 MOE]
cGAS 100 nM: 0.426

ATGTGATGGCCTCCCATCTC (antisense; 2'-MOE modified, pattern not given here) [HPRT-333 MOE]
cGAS 100 nM: 0.439

ATGTCCCCTGTTGACTGGTC (antisense; 2'-MOE modified, pattern not given here) [HPRT-489 MOE]
cGAS 100 nM: 0.574

TTCTGCAGCTTCCTTGTCCT (antisense; 2'-MOE modified, pattern not given here) [CTNN2B-2136 MOE]
cGAS 100 nM: 0.821

ATCCAACACTTCGTGGGGTC (antisense; 2'-MOE modified, pattern not given here) [HPRT-668 MOE]
cGAS 100 nM: 0.744

GGTCCATACCCAAGGCATCC (antisense; 2'-MOE modified, pattern not given here) [CTNN2B-2446 MOE]
cGAS 100 nM: 0.531

GGGAAAGGTTATGCAAGGTC (antisense; 2'-MOE modified, pattern not given here) [CTNN2B-916 MOE]
cGAS 100 nM: 0.156

GAACCACGTCTGCTCTAACA (antisense; 2'-MOE modified, pattern not given here) [CAMSAP1-1635 MOE]
cGAS 100 nM: 0.518

GGAGCTTCGAGGCCCCAGGC (MOE modified, pattern not given here) [MB21D1-616 MOE]
cGAS 100 nM: 0.117

TAGTCAAGGGCATATCCTAC (antisense; 2'-MOE modified, pattern not given here) [HPRT-732 MOE]
cGAS 100 nM: 0.848

GCGTGTCTGGAAGCTTCCTT (antisense; 2'-MOE modified, pattern not given here) [CTNN2B-809 MOE]
cGAS 100 nM: 0.241

GGTGGTCCACAACCCCTTTC (antisense; 2'-MOE modified, pattern not given here) [MB21D1-697 MOE]
cGAS 100 nM: 0.292

CAACACTTCGTGGGGTCCTT (antisense; 2'-MOE modified, pattern not given here) [HPRT-665 MOE]
cGAS 100 nM: 0.686

TCGCACTTCAGTCTGAGCAG (antisense; 2'-MOE modified, pattern not given here) [MB21D1-719 MOE]
cGAS 100 nM: 0.305

TTGCACACTTCGTACCCAAA (antisense; 2'-MOE modified, pattern not given here) [CAMSAP1-4915 MOE]
cGAS 100 nM: 0.392

ATGTCCCGCCACTGGATGCT (antisense; 2'-MOE modified, pattern not given here) [EGFR-727 MOE]
cGAS 100 nM: 0.549

AGATCTGGCAGCCCATCAAC (antisense; 2'-MOE modified, pattern not given here) [CTNN2B-2516 MOE]
cGAS 100 nM: 0.677

CAAGGCCCTTCGCACTTCTT (antisense; 2'-MOE modified, pattern not given here) [EGFR-1225 MOE]
cGAS 100 nM: 0.490

GGAGGTCTTGGCTTCGTGGA (antisense; 2'-MOE modified, pattern not given here) [MB21D1-524 MOE]
cGAS 100 nM: 0.450

CTTACTTTCCGAGGTGTCCA (antisense; 2'-MOE modified, pattern not given here) [CAMSAP1-1739 MOE]
cGAS 100 nM: 0.473

GGCATCCACCACGTCGTCCA (antisense; 2'-MOE modified, pattern not given here) [EGFR-3266 MOE]
cGAS 100 nM: 0.478

AATCCGCCCAAAGGGAACTG (antisense; 2'-MOE modified, pattern not given here) [HPRT-1027 MOE]
cGAS 100 nM: 0.494

GGTGGTGGCCACCCATCTCA (antisense; 2'-MOE modified, pattern not given here) [CTNN2B-2479 MOE]
cGAS 100 nM: 0.456

GCTTCAGGCGCTGCCTTGCC (antisense; 2'-MOE modified, pattern not given here) [CAMSAP1-2709 MOE]
cGAS 100 nM: 0.510

AGGTCTTGGCTTCGTGGAGC (antisense; 2'-MOE modified, pattern not given here) [MB21D1-522 MOE]
cGAS 100 nM: 0.118

ACAACCCCTTTCACCATCCC (antisense; 2'-MOE modified, pattern not given here) [MB21D1-689 MOE]
cGAS 100 nM: 0.658

TGTCCTTGCACGTGGCTTCG (antisense; 2'-MOE modified, pattern not given here) [EGFR-1014 MOE]
cGAS 100 nM: 0.515

AACACTTCGTGGGGTCCTTT (antisense; 2'-MOE modified, pattern not given here) [HPRT-664 MOE]
cGAS 100 nM: 0.615

TCCAACACTTCGTGGGGTCC (antisense; 2'-MOE modified, pattern not given here) [HPRT-667 MOE]
cGAS 100 nM: 0.799

GCGACTATACGCGCAATATG (antisense; 2'-MOE modified, pattern not given here) [NC5 2′MOE]
cGAS 100 nM: 0.720

TGTGATGGCCTCCCATCTCC (antisense; 2'-MOE modified, pattern not given here) [HPRT-332 MOE]
cGAS 100 nM: 0.438

GTCTTGGCTTCGTGGAGCAG (antisense; 2'-MOE modified, pattern not given here) [MB21D1-520 MOE]
cGAS 100 nM: 0.291

GGTGTCCTTGCACGTGGCTT (antisense; 2'-MOE modified, pattern not given here) [EGFR-1016 MOE]
cGAS 100 nM: 0.315

ACCCACTTGGCAGACCATCA (antisense; 2'-MOE modified, pattern not given here) [CTNN2B-1575 MOE]
cGAS 100 nM: 0.571

GCCGCTTTTCTGTCTGGTTC (antisense; 2'-MOE modified, pattern not given here) [CTNN2B-311 MOE]
cGAS 100 nM: 0.401

GGAGATTTCAGAGCAGCTTC (antisense; 2'-MOE modified, pattern not given here) [EGFR-4885 MOE]
cGAS 100 nM: 0.466

CACCCACTTGGCAGACCATC (antisense; 2'-MOE modified, pattern not given here) [CTNN2B-1576 MOE]
cGAS 100 nM: 0.658

CCAACACTTCGTGGGGTCCT (antisense; 2'-MOE modified, pattern not given here) [HPRT-666 MOE]
cGAS 100 nM: 0.557

GAGTCTCTGGAGCTTCCTCT (antisense; 2'-MOE modified, pattern not given here) [CAMSAP1-2456 MOE]
cGAS 100 nM: 0.250

TCAAAGGACTGAGGAAAGGG (antisense; 2'-MOE modified, pattern not given here) [CAMSAP1-6273 MOE]
cGAS 100 nM: 0.634

CTGTGATCTTGACATGCTGC (antisense; 2'-MOE modified, pattern not given here) [EGFR-2790 MOE]
cGAS 100 nM: 0.180

TAGGCACTTTGCCTCCTTCT (antisense; 2'-MOE modified, pattern not given here) [EGFR-2859 MOE]
cGAS 100 nM: 0.378

TTGCCATGCTGGCTCGGACT (antisense; 2'-MOE modified, pattern not given here) [CAMSAP1-2584 MOE]
cGAS 100 nM: 0.518

GCGGAGGTCTTGGCTTCGTG (antisense; 2'-MOE modified, pattern not given here) [MB21D1-526 MOE]
cGAS 100 nM: 0.346

CAGATAGCACCTTCAGCACT (antisense; 2'-MOE modified, pattern not given here) [CTNN2B-1294 MOE]
cGAS 100 nM: 0.388

GTCCTTGCACGTGGCTTCGT (antisense; 2'-MOE modified, pattern not given here) [EGFR-1013 MOE]
cGAS 100 nM: 0.374

GATGCTCCTCGGTCTCCCTT (antisense; 2'-MOE modified, pattern not given here) [CAMSAP1-1850 MOE]
cGAS 100 nM: 0.413

ACTGACTGTCTTGAGGGTTC (antisense; 2'-MOE modified, pattern not given here) [MB21D1-1483 MOE]
cGAS 100 nM: 0.221

GAGGTCTTGGCTTCGTGGAG (antisense; 2'-MOE modified, pattern not given here) [MB21D1-523 MOE]
cGAS 100 nM: 0.380

TGTCTTCATCGGCCCTGCCT (antisense; 2'-MOE modified, pattern not given here) [CAMSAP1-2112 MOE]
cGAS 100 nM: 0.557

TTGGCTCGGCTTGCCTACTT (antisense; 2'-MOE modified, pattern not given here) [CAMSAP1-5594 MOE]
cGAS 100 nM: 0.295

GCGTATTATAGCCGATTAAC (antisense; 2'-MOE modified, pattern not given here) [NC1 2′MOE]
cGAS 100 nM: 0.504

GATGGCCTCCCATCTCCTTC (antisense; 2'-MOE modified, pattern not given here) [HPRT-329 MOE]
cGAS 100 nM: 0.687
